System: treatment-resistant pruritus associated with atopic dermatitis, high or low baseline IgE
Assay: Exploratory analysis of study NCT02651714 by baseline IgE level (Example 4)
Type: in vivo, human
Parameters: Average Itch NRS / Average Itch NRS, Diff / Sleep Disturbance / Extension / Excoriations, Diff / Erythema / Skin dryness / Skin dryness, Diff / Itch / Itch, Diff / Insomnia / Insomnia, Diff / CGIC / CGIC, Diff / VRS / VRS, Diff / Average Itch VAS / Average Itch VAS, Diff / worst Itch VAS, Diff: scale not given here
Conditions: 85 mg bid; for Average Itch NRS, Diff / Average Itch VAS, Diff / CGIC, Diff / EASI, Diff / Erythema, Diff / Excoriations, Diff / Extension, Diff / Insomnia, Diff / Intensity, Diff / Itch, Diff / Lichenification, Diff / Log EASI, Diff / Objective SCORAD, Diff / Oozing/crusting, Diff / PBI, Diff / PGIC AD, Diff / PGIC ITCH, Diff / SCORAD Total, Diff / Skin dryness, Diff / Sleep Disturbance, Diff / Subjective SCORAD, Diff / VRS, Diff / Worst Itch NRS Day, Diff / Worst Itch NRS Night, Diff / Worst Itch NRS, Diff / edema/Papules, Diff / worst Itch VAS >= 30, Diff / worst Itch VAS, Diff / worst ItchVAS >= 40, Diff / EASI 75, Diff / SCORAD 50, Diff: Diff tradipitant vs placebo; for Average Itch NRS / Average Itch VAS / EASI / Log EASI / Objective SCORAD / SCORAD Total / Sleep Disturbance / Subjective SCORAD / VRS / Worst Itch NRS / Worst Itch NRS Day / Worst Itch NRS Night / worst Itch VAS: week 8, vs baseline; for worst Itch VAS >= 30 / worst ItchVAS >= 40: Fisher; for Erythema / Excoriations / Extension / Intensity / Lichenification / Oozing/crusting / Skin dryness / edema/Papules: objective SCORAD parameter; for Insomnia / Itch: subjective SCORAD parameter
Procedure: In the study described above in Example 3, an exploratory analysis is conducted to analyze Immunoglobulin E (IgE) levels and the effect of treatment with tradipitant on atopic dermatitis and pruritus. For purposes of the analysis, study participants having an IgE level greater than or equal to 100 kU/L are deemed to have a high IgE level, while study participants having an IgE level of less than 100 kU/L are deemed to have a low IgE level. The baseline mean and range SCORAD total for each of the total study population, the high IgE group, and the low IgE group are shown below in Table 5.
The mean and range of SCORAD totals shown in Table 5 illustrate that the study population spans different strata of disease severity, from mild to severe. Table 5 also illustrates the similarity in disease severity between the high IgE and low IgE groups. Table 6 (below) presents the study results of tradipitant in treatment-resistant pruritus associated with atopic dermatitis in individuals having high baseline IgE levels (IgE≥100 kU/L), while Table 7 (below) presents the study results of tradipitant in treatment-resistant pruritus associated with atopic dermatitis in individuals having low baseline IgE levels (IgE<100 kU/L). The data in Tables 6-7 represent a separation by IgE level of the data appearing in Table 4 above.
For purposes of the present analysis, individuals having an IgE level greater than or equal to 100 kU/L are considered to have high IgE levels, while individuals having an IgE level of less than 100 kU/L are considered to have low IgE levels.

[1] = high baseline IgE (≥100 kU/L), week 8
[2] = high baseline IgE (≥100 kU/L), week 8, LOCF
[3] = low baseline IgE (<100 kU/L), week 8
[4] = low baseline IgE (<100 kU/L), week 8, LOCF
[5] = high baseline IgE (≥100 kU/L), ITT, week 8
[6] = high baseline IgE (≥100 kU/L), ITT
[7] = high baseline IgE (≥100 kU/L), ITT, week 8, LOCF
[8] = low baseline IgE (<100 kU/L), ITT, week 8
[9] = low baseline IgE (<100 kU/L), ITT
[10] = low baseline IgE (<100 kU/L), ITT, week 8, LOCF

In the case of O=C(c1ccccc1Cl)c1cccnc1-c1nnn(Cc2cc(C(F)(F)F)cc(C(F)(F)F)c2)c1-c1ccncc1 [Tradipitant], the “Average Itch NRS, Diff” value [1] is reported as −1.6, the “Average Itch VAS, Diff” value [1] is reported as −14.97 and the “CGIC, Diff” value [1] is reported as −0.96. For the same compound, the “EASI, Diff” value [1] was −1.13, the “Erythema, Diff” value [1] was −0.15 and the “Excoriations, Diff” value [1] was −0.56. For the same compound, the “Extension, Diff” value [1] was −0.72, the “Insomnia, Diff” value [1] was −1.12 and the “Intensity, Diff” value [1] was −1.75. For the same compound, the “Itch, Diff” value [1] was −2.04, the “Lichenification, Diff” value [1] was −0.27 and the “Log EASI, Diff” value [1] was −0.46. For the same compound, the “Objective SCORAD, Diff” value [1] was −6.4, the “Oozing/crusting, Diff” value [1] was −0.23 and the “PBI, Diff” value [1] was 0.67. The “PGIC AD, Diff” value [1] was −0.91, the “PGIC ITCH, Diff” value [1] was −0.82 and the “SCORAD Total, Diff” value [1] was −9.9. The “Skin dryness, Diff” value [1] was −0.27, the “Sleep Disturbance, Diff” value [1] was −1.7 and the “Subjective SCORAD, Diff” value [1] was −3.1. The “VRS, Diff” value [1] was −0.5597, the “Worst Itch NRS Day, Diff” value [1] was −2.06 and the “Worst Itch NRS Night, Diff” value [1] was −2.14. The “Worst Itch NRS, Diff” value [1] was −2.1, the “edema/Papules, Diff” value [1] was −0.39 and the “worst Itch VAS >= 30, Diff” value [1] was 36.3%. For the same compound, the “worst Itch VAS, Diff” value [1] was −25.7, the “worst ItchVAS >= 40, Diff” value [1] was 28.4% and the “EASI 75, Diff” value [2] was 18.3%. For the same compound, the “SCORAD 50, Diff” value [2] was 36.6%, the “Average Itch NRS, Diff” value [3] was 0.4 and the “Average Itch VAS, Diff” value [3] was 6.8. For the same compound, the “CGIC, Diff” value [3] was −0.3, the “EASI, Diff” value [3] was −0.47 and the “Erythema, Diff” value [3] was −0.31. The “Excoriations, Diff” value [3] was −0.24, the “Extension, Diff” value [3] was −0.94 and the “Insomnia, Diff” value [3] was 0.29. The “Intensity, Diff” value [3] was −0.99, the “Itch, Diff” value [3] was 0.13 and the “Lichenification, Diff” value [3] was −0.03. The “Log EASI, Diff” value [3] was −0.21, the “Objective SCORAD, Diff” value [3] was −3.7 and the “Oozing/crusting, Diff” value [3] was −0.18. The “PBI, Diff” value [3] was 0.5, the “PGIC AD, Diff” value [3] was −0.6 and the “PGIC ITCH, Diff” value [3] was −0.48. For the same compound, the “SCORAD Total, Diff” value [3] was −2.8, the “Skin dryness, Diff” value [3] was −0.40 and the “Sleep Disturbance, Diff” value [3] was 0.2. For the same compound, the “Subjective SCORAD, Diff” value [3] was 0.43, the “VRS, Diff” value [3] was −0.23 and the “Worst Itch NRS Day, Diff” value [3] was 0.43. The “Worst Itch NRS Night, Diff” value [3] was 0.08, the “Worst Itch NRS, Diff” value [3] was 0.3 and the “edema/Papules, Diff” value [3] was 0.08. For the same compound, the “worst Itch VAS >= 30, Diff” value [3] was −3.2%, the “worst Itch VAS, Diff” value [3] was −0.9 and the “worst ItchVAS >= 40, Diff” value [3] was 5.6%. For the same compound, the “EASI 75, Diff” value [4] was 1.8%, the “SCORAD 50, Diff” value [4] was 7.7% and the CGIC [5] was 2.6. The PBI [5] was 1.7, the “PGIC AD” value [5] was 3.0 and the “PGIC ITCH” value [5] was 2.7. For the same compound, the “Average Itch NRS” value [6] was −3.4, the “Average Itch VAS” value [6] was −41.9 and the EASI [6] was −3.78. The “Log EASI” value [6] was −0.8, the “Objective SCORAD” value [6] was −11.7 and the “SCORAD Total” value [6] was −20.3. The “Sleep Disturbance” value [6] was −3.5, the “Subjective SCORAD” value [6] was −8.7 and the VRS [6] was −1.529. The “Worst Itch NRS” value [6] was −3.6, the “Worst Itch NRS Day” value [6] was −3.7 and the “Worst Itch NRS Night” value [6] was −3.8. For the same compound, the “worst Itch VAS” value [6] was −43.9, the “worst Itch VAS >= 30” value [5] was 57.9% and the “worst ItchVAS >= 40” value [5] was 50.0%. The “EASI 75” value [7] was 23.7%, the “SCORAD 50 (patients with at least a 50 percent reduction of SCORAD)” value [7] was 47.4% and the “SCORAD 50 (patients with at least a 50 percent reduction of SCORAD)” value (high baseline IgE (≥100 kU/L), ITT, week 8, LOCF, listed as tradipitant) was 47%. The CGIC [8] was 2.7, the PBI [8] was 1.98 and the “PGIC AD” value [8] was 2.4. For the same compound, the “PGIC ITCH” value [8] was 2.3, the “Average Itch NRS” value [9] was −2.9 and the “Average Itch VAS” value [9] was −39.3. For the same compound, the EASI [9] was −2.7, the “Log EASI” value [9] was −0.67 and the “Objective SCORAD” value [9] was −13.1. For the same compound, the “SCORAD Total” value [9] was −19.9, the “Sleep Disturbance” value [9] was −3.0 and the “Subjective SCORAD” value [9] was −7.2. The VRS [9] was −1.54, the “Worst Itch NRS” value [9] was −2.9 and the “Worst Itch NRS Day” value [9] was −2.9. The “Worst Itch NRS Night” value [9] was −3.0, the “worst Itch VAS” value [9] was −44 and the “worst Itch VAS >= 30” value [8] was 55.6%. The “worst ItchVAS >= 40” value [8] was 55.6%, the “EASI 75” value [10] was 19.4% and the “SCORAD 50” value [10] was 40.0%. It also gave an Erythema [5] of −0.46, an Excoriations [5] of −0.80 and an Extension [5] of −2.4. It also gave an Intensity [5] of −3.2, a Lichenification [5] of −0.42 and an Oozing/crusting [5] of −0.53. It also gave a Skin dryness [5] of −0.62, an edema/Papules [5] of −0.62 and an Erythema [8] of −0.74. For the same compound, the Excoriations [8] was −0.74, the Extension [8] was −1.9 and the Intensity [8] was −3.6. For the same compound, the Lichenification [8] was −0.49, the Oozing/crusting [8] was −0.61 and the Skin dryness [8] was −0.73. For the same compound, the edema/Papules [8] was −0.43, the “treatment effect in itch and disease severity, high IgE group compared to low IgE group” value (regardless of IgE cutoff (50 to 300 kU/L)) was “consistently stronger treatment effect” and the Insomnia [5] was −4.0. The Itch [5] was −4.7, the Insomnia [8] was −3.2 and the Itch [8] was −4.0.
